Results: PMC6635573, “A live cell NanoBRET binding assay allows the study of ligand-binding kinetics to the adenosine A3 receptor” (Purinergic Signalling, 2019)

How the values were obtained:
human A3AR [1] = target: T1, human A3AR (Homo sapiens, UniProt P0DMS8); experiment: [3H]PSB-11 radioligand competition association (Motulsky and Mahan) in Nluc-A3AR HEK293 membranes; type: binding; parameters: expressed in transfected cells; conditions: for Kd: read-out: Kinetics pKD (converted)
T1 sequence (P0DMS8 1-318): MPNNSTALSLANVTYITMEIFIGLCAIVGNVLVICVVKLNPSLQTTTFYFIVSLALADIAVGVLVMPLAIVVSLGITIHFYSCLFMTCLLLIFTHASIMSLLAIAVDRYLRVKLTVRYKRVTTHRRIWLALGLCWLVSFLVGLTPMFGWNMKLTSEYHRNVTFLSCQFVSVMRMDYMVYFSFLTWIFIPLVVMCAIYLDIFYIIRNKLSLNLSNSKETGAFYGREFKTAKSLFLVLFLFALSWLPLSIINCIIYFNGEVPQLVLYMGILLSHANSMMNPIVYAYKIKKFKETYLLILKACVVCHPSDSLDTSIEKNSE
Protocol: (§1) Prior to all experiments, membranes from HEK293 membranes expressing human Nluc-A3AR were diluted to 20 μg/well in a total volume of 100 μL/well assay buffer (50 mM Tris-HCl, 5 mM MgCl2, supplemented with 0.01% CHAPS and 1 mM EDTA, pH 7.4) and homogenised using an IKA T10 Ultra-Turrax disperser in 3 × 5 s bursts at 15,000 rpm. For equilibrium displacement assays, membranes were placed in 96-well microplates at 10 °C and the required concentration of competing agonist was added in the presence of a final concentration of ~ 10 nM [^3H] […] For association assays, Nluc-A3AR HEK293 membranes were placed at 10 °C in 96-well microplates and the amount of radioligand bound to the receptor was measured at different time points during a total incubation of 120 min. For dissociation experiments, HEK293 membranes expressing human Nluc-A3AR were incubated for 120 min with ~ 10 nM [^3H] […] The competition association assays were initiated by the addition of Nluc-A3AR HEK293 membranes at different time points for a total of 240 min to a total volume of 100 μl/well of assay buffer at 10 °C with ~ 10 nM [^3H] […] For all experiments, incubation was terminated by rapid filtration performed on 96-well GF/B filter plates using a PerkinElmer Filtermate-harvester (PerkinElmer, Groningen, The Netherlands). After drying the filter plate at 50 °C for 30 min, the filter-bound radioactivity was determined by scintillation spectrometry using a 2450 MicroBeta^2 Plate Counter (PerkinElmer, Boston, MA). In addition, the exact concentration of [^3H]
(§2) The binding kinetics of unlabelled ligands was quantified using the competition association assay based on the theoretical framework by Motulsky and Mahan. NanoBRET and radioligand data were fitted into the competition association model using ‘kinetics of competitive binding’ to determine association and dissociation rate constants of the unlabelled compounds:
KA=k1L⋅10^−9+k2KB=k3I⋅10^−9+k4S=KA−KB^2+4⋅k1⋅k3⋅L⋅I⋅10^−18KF=0.5KA+KB+SKS=0.5KA+KB−SQ=Bmax⋅k1⋅L⋅10^−9/KF−KSY=Q⋅k4⋅KF−KS/KF⋅KS+k4−KF/KFe^−KF⋅X−k4−KS/KSe^−KS⋅X where k1 is the kon of the labelled ligand (M^−1 min^−1), k2 is the koff of the labelled ligand (min^−1), L is the concentration of the labelled ligand in nanomolar, I is the concentration of the unlabelled competitor (nM), X is the time (min) and Y is the specific binding of the labelled ligand (NanoBRET ratio or DPM).
(§3) k1 and k2 values were generated from association kinetic experiments. k3, k4 and Bmax were then calculated, where k3 represents the kon (M^−1 min^−1) of the unlabelled ligand, k4 stands for the koff (min^−1) of the unlabelled ligand and Bmax equals the total binding (NanoBRET ratio or DPM). The residence time (RT) was calculated as the reciprocal of the ligand dissociation rate constant as follows: RT=1/koff
This was borne out in the kinetics parameters obtained from fitting the data to the Motulsky and Mahan model (Table 2).

human A3AR [2] = target: T1, human A3AR; experiment: NanoBRET association kinetics of fluorescent antagonists in live Nluc-A3AR HEK293 cells; conditions: for residence time: read-out: Kinetics RT (residence time); for koff: read-out: Kinetics koff; for kon: read-out: Kinetics kon
Protocol: (§4) For saturation and competition binding assays, the required concentration of fluorescent ligand and competing ligand was added simultaneously and incubated for 1 h (for AV039) or 3 h (for XAC-S-ser-S-tyr-X-BY630) at 37 °C (no CO2). After 1 h, 10 μM furimazine was added to each well and the plate incubated for 5 min at 37 °C before reading. […] For association kinetic experiments, following the furimazine incubation, the required concentration of fluorescent ligand in the presence or absence of 10 μM MRS1220 was added simultaneously and the plate read immediately once per minute for up to 3 h at 37 °C. For kinetic competition association assays, after furimazine incubation, either XAC-S-ser-S-tyr-X-BY630 (20 nM) or AV039 (40 nM) were added simultaneously with the required concentration of unlabelled ligand or 10 μM MRS1220 to determine non-specific binding and read once per minute for the indicated times at 37 °C. For all NanoBRET experiments, fluorescence and luminescence were read using a PHERAstar FS plate reader (BMG Labtech, Ortenberg, Germany). Filtered light emissions were measured at 460 nm (80 nm band pass) and at > 610 nm (long pass) for the BY630 labelled ligands and at 450 nm (80 nm band pass) and > 550 nm (long pass) for the BYFL labelled ligand. The raw NanoBRET ratio was calculated by dividing the fluorescence emission (610 or 550 nm) by the luminescence emission (460 or 450 nm).
For NanoBRET association kinetic data, non-specific binding was determined in wells with fluorescent ligand plus 10 μM MRS1220 and this was obtained for each concentration of fluorescent ligand at each time point. This was subsequently subtracted from total binding at the equivalent time point. The data were simultaneously fit to the following equations: Y=Ymax1−e^−kobst kon=kobs−koff/L where Ymax equals the level of binding at infinite time (t), kobs is the rate constant for the observed rate of association at a particular concentration of L, [L] is the ligand concentration in molar, koff is the dissociation rate constant of the ligand in per minute and kon is the association rate constant in per molar per minute. From this, the equilibrium dissociation constant (KD) is determined as follows: KD=koff/kon

human A3AR [3] = target: T1, human A3AR; experiment: [3H]PSB-11 radioligand equilibrium displacement in Nluc-A3AR HEK293 membranes; type: binding; parameters: expressed in transfected cells; conditions: read-out: Equilibrium competition pKi (converted)
Protocol: Prior to all experiments, membranes from HEK293 membranes expressing human Nluc-A3AR were diluted to 20 μg/well in a total volume of 100 μL/well assay buffer (50 mM Tris-HCl, 5 mM MgCl2, supplemented with 0.01% CHAPS and 1 mM EDTA, pH 7.4) and homogenised using an IKA T10 Ultra-Turrax disperser in 3 × 5 s bursts at 15,000 rpm. For equilibrium displacement assays, membranes were placed in 96-well microplates at 10 °C and the required concentration of competing agonist was added in the presence of a final concentration of ~ 10 nM [^3H] […] For all experiments, incubation was terminated by rapid filtration performed on 96-well GF/B filter plates using a PerkinElmer Filtermate-harvester (PerkinElmer, Groningen, The Netherlands). […] In addition, the exact concentration of [^3H]

human A3AR [4] = target: T1, human A3AR; experiment: NanoBRET saturation binding of fluorescent antagonists in live Nluc-A3AR HEK293 cells
Protocol: as §4
NanoBRET total and non-specific saturation binding curves were fitted simultaneously using the following equation: BRET ratio=Bmax.B/B+KD+M.B+C where Bmax is the maximal specific binding achieved, [B] is the concentration of fluorescent ligand, KD is the equilibrium dissociation constant, M is the slope of the non-specific binding component and C is the intercept with the Y-axis.
Initially, we determined the affinity of each of these fluorescent antagonists at NanoLuc tagged A3AR (Nluc-A3AR) in the NanoBRET assay.

human A3AR [5] = target: T1, human A3AR; experiment: NanoBRET kinetic competition association with XAC-S-ser-S-tyr-X-BY630 as probe in Nluc-A3AR HEK293 cells; type: binding; parameters: expressed in transfected cells; conditions: for Kinetics RT (probe XAC-S-ser-S-tyr-X-BY630): reciprocal of koff, NanoBRET competition association with 20 nM XAC-S-ser-S-tyr-X-BY630, cells
Protocol: as §2
The residence time (RT) was calculated as the reciprocal of the ligand dissociation rate constant as follows: RT=1/koff

human A3AR [6] = target: T1, human A3AR; experiment: NanoBRET kinetic competition association with AV039 as probe in Nluc-A3AR HEK293 cells; type: binding; parameters: expressed in transfected cells; conditions: for Kd: read-out: Kinetics pKD (probe AV039) (converted); for Kinetics RT (probe AV039): reciprocal of koff, NanoBRET competition association with 40 nM AV039, cells
Protocol: as §2, §3

human A3AR [7] = target: T1, human A3AR; experiment: NanoBRET equilibrium competition binding with AV039 as probe in Nluc-A3AR HEK293 cells
Protocol: For saturation and competition binding assays, the required concentration of fluorescent ligand and competing ligand was added simultaneously and incubated for 1 h (for AV039) or 3 h (for XAC-S-ser-S-tyr-X-BY630) at 37 °C (no CO2). After 1 h, 10 μM furimazine was added to each well and the plate incubated for 5 min at 37 °C before reading. […] For association kinetic experiments, following the furimazine incubation, the required concentration of fluorescent ligand in the presence or absence of 10 μM MRS1220 was added simultaneously and the plate read immediately once per minute for up to 3 h at 37 °C. For kinetic competition association assays, after furimazine incubation, either XAC-S-ser-S-tyr-X-BY630 (20 nM) or AV039 (40 nM) were added simultaneously with the required concentration of unlabelled ligand or 10 μM MRS1220 to determine non-specific binding and read once per minute for the indicated times at 37 °C. For all NanoBRET experiments, fluorescence and luminescence were read using a PHERAstar FS plate reader (BMG Labtech, Ortenberg, Germany). Filtered light emissions were measured at 460 nm (80 nm band pass) and at > 610 nm (long pass) for the BY630 labelled ligands and at 450 nm (80 nm band pass) and > 550 nm (long pass) for the BYFL labelled ligand. […]

human A3AR [8] = target: T1, human A3AR; experiment: NanoBRET equilibrium competition binding with XAC-S-ser-S-tyr-X-BY630 as probe in Nluc-A3AR HEK293 cells; parameters: expressed in transfected cells
human A3AR [9] = target: T1, human A3AR; experiment: [3H]PSB-11 radioligand association and dissociation in Nluc-A3AR HEK293 membranes; type: binding; parameters: expressed in transfected cells; conditions: 10 °C
Protocol: as §1
To confirm the differences in the kinetics observed with AV039 and XAC-S-ser-S-tyr-X-BY630, radioligand equilibrium and kinetic binding assays in membranes from HEK293 cells stably expressing Nluc-A3AR were undertaken.

human A3AR [10] = target: T1, human A3AR; experiment: [3H]PSB-11 saturation binding (KD used for the Ki calculation); parameters: expressed in transfected cells; conditions: radioligand, saturation binding assay of this study, read-out: KD, equilibrium dissociation constant of the labelled ligand
[11] = read-out: Kinetics koff (converted)
[12] = read-out: Kinetics kon (converted)
[13] = NanoBRET competition association with 40 nM AV039, Nluc-A3AR HEK293 cells, 37 °C
[14] = association and dissociation curves of 10 nM [3H]PSB-11, Nluc-A3AR HEK293 membranes

Kd (human A3AR [2]) | residence time (human A3AR [2]) | koff (human A3AR [2]) | kon (human A3AR [2]) | Kd (human A3AR [4]) | Molecule | koff (human A3AR [1]; [11]) | kon (human A3AR [1]; [12]) | Kd (human A3AR [1]) | Ki (human A3AR [3]) | Kinetics RT (probe XAC-S-ser-S-tyr-X-BY630) (human A3AR [5]; 37 °C) | Kinetics RT (probe AV039) (human A3AR [6]; 37 °C) | other results
0.0447 µM | 6.8 ± 0.8 min | 0.0025 s⁻¹ | 61200 M⁻¹ s⁻¹ | 0.00776 µM | COc1ccc(-n2nc3c(NC(=O)CCC(=O)NCCOCCOCCNC(=O)CCCCCNC(=O)COc4ccc(/C=C/C5=[N+]6C(=Cc7ccc(-c8cccs8)n7[B-]6(F)F)C=C5)cc4)nc4ccccc4n3c2=O)cc1 [AV039] | 0.00127 s⁻¹ | 54500 M⁻¹ s⁻¹ | 0.0234 µM | 0.0224 µM |  |  | 
 |  |  |  |  | COc1cccc(Cn2c(=O)n(CC3CC3)c(=O)c3c2nc2cc(OC)ccn23)c1 [LUF7565] |  |  | 0.000776 µM | 0.00102 µM | 49.2 ± 6.7 min | 72.9 ± 8.3 min | koff (human A3AR [1]; read-out: Kinetics koff): 0.000108 s⁻¹; kon (human A3AR [1]; read-out: Kinetics kon): 136000 M⁻¹ s⁻¹; Kd (human A3AR [5]): 0.0135 µM; koff (human A3AR [5]; NanoBRET competition association with 20 nM XAC-S-ser-S-tyr-X-BY630, Nluc-A3AR HEK293 cells, 37 °C, read-out: Kinetics koff (probe XAC-S-ser-S-tyr-X-BY630) (converted)): 0.000367 s⁻¹; kon (human A3AR [5]; NanoBRET competition association with 20 nM XAC-S-ser-S-tyr-X-BY630, Nluc-A3AR HEK293 cells, 37 °C, read-out: Kinetics kon (probe XAC-S-ser-S-tyr-X-BY630) (converted)): 26800 M⁻¹ s⁻¹; Kd (human A3AR [6]; [13]): 0.00676 µM; koff (human A3AR [6]; read-out: Kinetics koff (probe AV039)): 0.00025 s⁻¹; kon (human A3AR [6]; read-out: Kinetics kon (probe AV039)): 44700 M⁻¹ s⁻¹; Ki (human A3AR [7]): 0.0117 µM; Ki (human A3AR [8]): 0.1 µM
 |  |  |  |  | CC[C@@H]1CN2C(=O)N(C)c3nc(-c4ccccc4)[nH]c3C2=N1 [PSB-11] |  |  |  |  | 22.4 ± 6.1 min | 6.6 ± 1.3 min | 
0.0178 µM | 14.9 ± 1.1 min | 0.00115 s⁻¹ | 65800 M⁻¹ s⁻¹ | 0.0166 µM | CCCn1c(=O)c2[nH]c(-c3ccc(OCC(=O)NCCNC(=O)[C@H](CO)NC(=O)[C@H](Cc4ccc(O)cc4)NC(=O)CCCCCNC(=O)CCc4ccc5n4[B-](F)(F)[N+]4=C(C)C=C(C)C4=C5)cc3)nc2n(CCC)c1=O [XAC-S-ser-S-tyr-X-BYFL] |  |  |  |  |  |  | 
 |  |  |  |  | COc1ccn2c(c1)nc1c2c(=O)[nH]c(=O)n1Cc1ccccc1 [compound 5, 1-Benzyl-8-methoxy-1H,3H-pyrido[2,1-f]purine-2,4-dione] | 0.0033 s⁻¹ | 110000 M⁻¹ s⁻¹ | 0.0295 µM | 0.0447 µM | 23.2 ± 3.6 min | 1.1 ± 0.4 min | Kd (human A3AR [5]): 0.288 µM; koff (human A3AR [5]; read-out: Kinetics koff (probe XAC-S-ser-S-tyr-X-BY630)): 0.000783 s⁻¹; kon (human A3AR [5]; read-out: Kinetics kon (probe XAC-S-ser-S-tyr-X-BY630)): 2670 M⁻¹ s⁻¹; koff (human A3AR [6]; NanoBRET competition association with 40 nM AV039, Nluc-A3AR HEK293 cells, 37 °C, read-out: Kinetics koff (probe AV039) (converted)): 0.0235 s⁻¹; kon (human A3AR [6]; NanoBRET competition association with 40 nM AV039, Nluc-A3AR HEK293 cells, 37 °C, read-out: Kinetics kon (probe AV039) (converted)): 183000 M⁻¹ s⁻¹; Kd (human A3AR [6]; [13]): 0.123 µM; Ki (human A3AR [7]): 0.0891 µM; Ki (human A3AR [8]): 0.832 µM
 |  |  |  |  | [^3H]8-Ethyl-4-methyl-2-phenyl-(8R)-4,5,7,8-tetrahydro-1H-imidazo[2,1-i]-purin-5-one [[^3H]PSB-11] |  |  |  |  |  |  | Kinetics kon (human A3AR [9]; [14]): 2.75 ± 0.52 × 10^6 M^−1 min^−1; Kinetics pKD (human A3AR [9]; [14]): 8.04 ± 0.08; Kinetics koff (human A3AR [9]; association and dissociation curves of 10 nM [3H]PSB-11, dissociation initiated with 10 μM PSB-11, membranes): 0.000383 ± 3.3e-05 s⁻¹; Kinetics RT (residence time) (human A3AR [9]; reciprocal of koff, 10 nM [3H]PSB-11, Nluc-A3AR HEK293 membranes): 44.6 ± 3.9 min; Kd (human A3AR [10]): 0.0099 µM

Molecule | Kd (human A3AR [2]) | residence time (human A3AR [2]) | koff (human A3AR [2]) | kon (human A3AR [2]) | Kd (human A3AR [4]) | koff (human A3AR [1]; [11]) | kon (human A3AR [1]; [12]) | Kd (human A3AR [1]) | Ki (human A3AR [3]) | Kinetics RT (probe XAC-S-ser-S-tyr-X-BY630) (human A3AR [5]; 37 °C) | Kinetics RT (probe AV039) (human A3AR [6]; 37 °C) | other results
CCCn1c(=O)c2[nH]c(-c3ccc(OCC(=O)NCCNC(=O)[C@H](CO)NC(=O)[C@H](Cc4ccc(O)cc4)NC(=O)CCCCCNC(=O)COc4ccc(/C=C/C5=[N+]6C(=Cc7ccc(-c8cccs8)n7[B-]6(F)F)C=C5)cc4)cc3)nc2n(CCC)c1=O [XAC-S-ser-S-tyr-X-BY630] | 0.00269 µM | 288 ± 62 min | 7.17e-05 s⁻¹ | 27700 M⁻¹ s⁻¹ | 0.00309 µM | 3.83e-05 s⁻¹ | 2330 M⁻¹ s⁻¹ | 0.0182 µM | 0.0617 µM |  |  | residence time (human A3AR [1]; read-out: RT (residence time)): > 450 min
